Three compounds from patent US20180237774A1, “METHODS OF SCREENING FOR RIBOSWITCHES AND ATTENUATORS” (priority 2015, published 2018) can be followed below.

One assay deals with B. subtilis. As to the kind of experiment: Sublethal antibiotic concentration determination (growth-rate monitoring). Format: cell-based, Bacillus subtilis str. 168. The note with it: for Sublethal concentration (highest antibiotics concentration that did not cause growth-rate inhibition): Table 2; for Sublethal concentrations of antibiotics used in this study: Table 6. As for the experimental part:
(§1) A sublethal concentration for the antibiotics lincomycin, erythromycin, chloramphenicol, kanamycin, ofloxacin, ampicilin and bacitracin (Sigma) was determined for each of the organisms used in this study as follows. Bacterial cultures were propagated in LB or BHI O.N. in triplicates and diluted 1:200 into fresh media. Cultures were grown to early exponential phase (OD600=0.1-0.2) and then supplemented with serially diluted antibiotics stocks. The growth rate was dynamically monitored in intervals of 10-15 min using a 96 well plate format OD reader (Infinite M200 Tecan) for a period of at least 4 hours. […] To identify antibiotic-responsive regulators, bacteria were grown in LB or BHI in triplicates as described above and, upon reaching early exponential phase, 5 ml cultures were independently exposed for 15 minutes to the sublethal concentration of each antibiotic as determined above. Bacteria were then collected by centrifugation, flash frozen and stored in −80° C. until RNA extraction.

For a further assay, the system named is L. monocytogenes. The assay is described as above. The assay is classed as cell-based, Listeria monocytogenes EGDe. The conditions noted are these: for Sublethal concentration (highest antibiotics concentration that did not cause growth-rate inhibition): Table 2; for Sublethal concentrations of antibiotics used in this study: Table 6. As for the experimental part:
as §1

For a further assay, the system named is E. faecalis. Described as above. The assay is classed as cell-based, Enterococcus faecalis ATCC 29212. The conditions noted are these: for Sublethal concentration (highest antibiotics concentration that did not cause growth-rate inhibition): Table 2; for Sublethal concentrations of antibiotics used in this study: Table 6. As for the experimental part:
as §1

A further assay relates to L. monocytogenes Wt. As to the kind of experiment: Minimal inhibitory concentration (MIC) determination in broth. The assay is classed as cell-based. The conditions noted are these: Listeria monocytogenes, 48 h, BHI, two days at 37° C. The protocol: (§2) The MIC was determined in broth culturing conditions in the presence of serially diluted antibiotic concentrations. Briefly, the bacterial strains were grown O.N. at 37° C. in BHI agarose plates and 1-3 single colonies were collected into 1 ml of BHI broth. The OD600 was adjusted to 0.01 and then diluted 1:10 into a 96-well plate containing a final volume of 200 μl BHI supplemented with two-fold serial dilutions of lincomycin, erythromycin and chloramphenicol.

Assay [1] relates to lmo1652 regulatory element (rli59). As to the kind of experiment: Antibiotic-dependent transcriptional readthrough by term-seq and RNA-seq. Format: cell-based, L. monocytogenes. As for the experimental part: as §1
Term-seq average coverage across triplicates was calculated for the premature termination site and the full length gene termination site with a span of 10 nt surrounding each terminator, and the fraction of full length (gene) terminations out of all termination events was used to as a measure of the transcriptional readthrough (FIG. 3A). In cases where the regulator controlled the transcription of a multi-gene operon, which contained internal TSSs in addition to the primary one, RNA-seq was used to determine readthrough in the first gene (FIGS. 4C and 4F). RNA-seq coverage was used to measure the median read coverage over either the regulatory element or the gene, and the ratio between the two (gene-coverage divided by regulator-coverage) was used as an estimate for the short/long transcript ratio generated by regulator activity (FIG. 3A).

Assay [2] deals with L. monocytogenes Δlmo0919. The assay is described as follows: Minimal inhibitory concentration (MIC) determination in broth. The assay is classed as cell-based, Listeria monocytogenes. The conditions noted are these: Listeria monocytogenes, 48 h. The text has this:
For mutant generation with pMAD-based plasmids^59, ˜600 nt regions of complementarity both upstream and downstream of a targeted region were either ordered as gBlocks (IDT) and amplified with gBlock-Up and Down oligonucleotides (Table 1) complimentary to uniform flanks on each gBlock corresponding to the 40 nts on either side of the pMAD multi-cloning site, or PCR amplified with Phusion High fidelity polymerase and reagents (Finnzymes, F-553) using genomic DNA as a template and then joined by a second splice overlap extension PCR reaction using the first two PCR products as template to generate a Upstream-Downstream (UD) PCR product (Table 1, lmo0919 deletion). PCR products were subsequently purified with QIAquick PCR purification columns (Qiagen, 28104), digested with the SalI and XmaI restriction enzymes (NEB), purified again as before, and ligated into SalI/XmaI digested pMAD plasmid for 1 hr at 25° C. with T4 DNA ligase (NEB, M0202S). 2 μl of each ligation were transformed into chemically competent E. coli Top10 (Invitrogen, C404003) cells according to the manufacturer's instructions. Transformants were screened by PCR and Sanger sequencing for the presence of the appropriate insert. Electrocompetent L. monocytogenes strains were transformed with the respective plasmid and mutagenesis carried out as described previously^59. Briefly, after transformation and plating onto selective BHI, 5 ug/ml erythromycin (Em) 80 ug/ml 5-bromo-4-chloro-3-indolyl-β-D-galactopyranoside (X-gal) plates, bacteria were grown at 30° C. for two days. A single blue colony was picked and transferred to liquid BHI broth and grown for an additional 6 hrs at 30° C. The colony was then diluted 1:1000 into 10 ml of BHI-Em and grown O.N. at 42° C., which prevents pMAD replication in the cytosol owing to a temperature sensitive ori. […]
The MIC was determined in broth culturing conditions in the presence of serially diluted antibiotic concentrations. […]

Assay [3] concerns L. monocytogenes uORF ATG > ACG. The assay is described as above. The assay is classed as cell-based. The note with it: Listeria monocytogenes, 48 h.
Text: (§3) For mutant generation with pMAD-based plasmids^59, ˜600 nt regions of complementarity both upstream and downstream of a targeted region were either ordered as gBlocks (IDT) and amplified with gBlock-Up and Down oligonucleotides (Table 1) complimentary to uniform flanks on each gBlock corresponding to the 40 nts on either side of the pMAD multi-cloning site, or PCR amplified with Phusion High fidelity polymerase and reagents (Finnzymes, F-553) using genomic DNA as a template and then joined by a second splice overlap extension PCR reaction using the first two PCR products as template to generate a Upstream-Downstream (UD) PCR product (Table 1, lmo0919 deletion). PCR products were subsequently purified with QIAquick PCR purification columns (Qiagen, 28104), digested with the SalI and XmaI restriction enzymes (NEB), purified again as before, and ligated into SalI/XmaI digested pMAD plasmid for 1 hr at 25° C. with T4 DNA ligase (NEB, M0202S). 2 μl of each ligation were transformed into chemically competent E. coli Top10 (Invitrogen, C404003) cells according to the manufacturer's instructions. Transformants were screened by PCR and Sanger sequencing for the presence of the appropriate insert. Electrocompetent L. monocytogenes strains were transformed with the respective plasmid and mutagenesis carried out as described previously^59. Briefly, after transformation and plating onto selective BHI, 5 ug/ml erythromycin (Em) 80 ug/ml 5-bromo-4-chloro-3-indolyl-β-D-galactopyranoside (X-gal) plates, bacteria were grown at 30° C. for two days. A single blue colony was picked and transferred to liquid BHI broth and grown for an additional 6 hrs at 30° C. The colony was then diluted 1:1000 into 10 ml of BHI-Em and grown O.N. at 42° C., which prevents pMAD replication in the cytosol owing to a temperature sensitive ori. Serial dilutions were plated onto BHI-X-gal-Em plates and grown for two days at 42° C., and the process was reiterated several times until white colonies, in which the plasmid integrated into the genome, were recovered. Colonies were screened by colony PCR, and mutants were confirmed by Sanger sequencing.
as §2

In assay [4] the test system is L. monocytogenes ΔAnti-anti-terminator. The assay is described as above. Format: cell-based. The note with it: Listeria monocytogenes, 48 h.
Text: as §3, §2

Assay [5] deals with L. monocytogenes ΔAnti-terminator. The description is as above. The assay is classed as cell-based. The note with it: Listeria monocytogenes, 48 h.
Text: as §3, §2

The test system of assay [6] is msrC (EF1413) termination-based regulator. As to the kind of experiment: Antibiotic-dependent transcriptional readthrough by term-seq and RNA-seq. Format: cell-based, E. faecalis. The conditions noted are these: upon exposure to the antibiotic. As for the experimental part:
as §1
Term-seq average coverage across triplicates was calculated for the premature termination site and the full length gene termination site with a span of 10 nt surrounding each terminator, and the fraction of full length (gene) terminations out of all termination events was used to as a measure of the transcriptional readthrough (FIG. 3A). […]

SMILES strings stand for the structures. In brackets after ≈: the same amount, converted by molar mass.

Turning to `CC1(C)S[C@@H]2[C@H](NC(=O)[C@H](N)c3ccccc3)C(=O)N2[C@H]1C(=O)O` [Ampicillin], the “Sublethal concentration (highest antibiotics concentration that did not cause growth-rate inhibition)” value in the assay on B. subtilis was 0.0625 µg/mL; in the assay with L. monocytogenes it was 1 µg/mL; with E. faecalis, 2 µg/mL. The results for the “Sublethal concentrations of antibiotics used in this study” value (shortened to “Sublethal concentrations”) in the assay with B. subtilis, with L. monocytogenes and in the assay with E. faecalis were 0.0625 µg/mL, 1 µg/mL and 2 µg/mL, respectively.
A word on the MIC: it is the smallest concentration in the dilution series that meets the test's criterion for growth inhibition. On to `O=C(N[C@H](CO)[C@H](O)c1ccc([N+](=O)[O-])cc1)C(Cl)Cl` [Chloramphenicol], for which the “Sublethal concentration (highest antibiotics concentration that did not cause growth-rate inhibition)” value in the assay with B. subtilis amounted to 0.2 µg/mL; in the assay on L. monocytogenes it was 0.4 µg/mL; in the assay on E. faecalis it was 0.4 µg/mL. Besides, the “Sublethal concentrations” value is 0.2 µg/mL in the assay on B. subtilis, 0.4 µg/mL in the assay with L. monocytogenes and 0.4 µg/mL in the assay with E. faecalis. Further, in the assay on L. monocytogenes Wt, the MIC came to 2 µg/mL (≈ 6.19 µM). Further, in assay [1], the “Response of the lmo1652 regulatory element” value was “responds”.
Regarding `CC[C@H]1OC(=O)[C@H](C)[C@@H](O[C@H]2C[C@@](C)(OC)[C@@H](O)[C@H](C)O2)[C@H](C)[C@@H](O[C@@H]2O[C@H](C)C[C@H](N(C)C)[C@H]2O)[C@](C)(O)C[C@@H](C)C(=O)[C@H](C)[C@@H](O)[C@]1(C)O` [Erythromycin], the results for the “Sublethal concentration (highest antibiotics concentration that did not cause growth-rate inhibition)” value in the assay on B. subtilis, with L. monocytogenes and in the assay on E. faecalis were 0.01562 µg/mL, 0.03125 µg/mL and 0.5 µg/mL, respectively. The “Sublethal concentrations” value in the assay on B. subtilis amounted to 0.01562 µg/mL; in the assay on L. monocytogenes it was 0.03125 µg/mL; in the assay with E. faecalis, 0.5 µg/mL. In addition, the MIC with L. monocytogenes Wt was found to be 0.0312 µg/mL (≈ 0.0426 µM); in assay [2], 0.0625 µg/mL (≈ 0.0852 µM); in assay [3], 0.0625 µg/mL (≈ 0.0852 µM); in assay [4], 0.0312 µg/mL (≈ 0.0426 µM); in [5], 0.0625 µg/mL (≈ 0.0852 µM). Also, in assay [1], the “Response of the lmo1652 regulatory element” value is “responds”. For the same compound, the “Response of msrC promoter and termination-based regulator” value in [6] was “increase both the transcription initiation rate and readthrough into the gene”.
